Experimental data from US11008295B2, “Compounds having antiinfective, antitumoral and antifungal activity” (priority 2017, dated 2021).

Tests used:
Assay in all cases: Kirby-Bauer disk diffusion susceptibility test
B. cereus = assay type: cell-based, Bacillus cereus
Protocol: (§1) Bacterial strains, from clinical origin, were supplied by the National Center for Microbiology, Institute of Health Carlos III (Majadahonda, Madrid). They are detailed in Table I.
(§2) Bacterial cells suspension in sterile saline was prepared from a culture of 24-72 h, depending on bacterial species, in Mueller-Hinton Agar with 5% sheep blood. Each suspension was adjusted to a fixed size inoculum of 1-5×10^8 CFU/ml with a spectrophotometer (Ferraro, M J National Committee for Clinical Laboratory Standards. 2000).
(§3) Kirby-Bauer disk diffusion susceptibility test protocol was utilized to determine the sensitivity or resistance of pathogenic bacteria against the compounds and others antibiotics. The absence of growth around the disks is an indirect measure of the ability of this compound to inhibit an organism (Kirby, W. et al., Antibiotics Annu. 1956-1957:892). After 18 to 72 hours of incubation at […], with or without CO2, under aerobic or anaerobic conditions, depending on the bacterial species, halo of growth inhibition were obtained and evaluated.
(§4) Interpretation of susceptibility and resistance was based on the presence or absence of a zone of inhibition surrounding the disk. Kirby-Bauer disk diffusion susceptibility test is a common method which uses antibiotic-impregnated wafers to test whether bacteria are affected by antibiotics. The size of the zone of inhibition depends on how effective the antibiotic is at stopping the growth of the bacterium. A stronger antibiotic will create a larger zone, because a lower concentration of the antibiotic is enough to stop growth.

S. epidermidis = assay type: cell-based
Protocol: as §1, §2, §3, §4

S. aureus = assay type: cell-based
Protocol: as §1, §2, §3, §4

E. faecalis = assay type: cell-based
Protocol: as §1, §2, §3, §4

E. faecium = assay type: cell-based
Protocol: as §1, §2, §3, §4

N. carnea = assay type: cell-based, Nocardia carnea
Protocol: as §1, §2, §3, §4

T. pulmonis = assay type: cell-based, Tsukamurella pulmonis
Protocol: as §1, §2, §3, §4

E. coli = assay type: cell-based
Protocol: as §1, §2, §3, §4

N. cyriacigeorgica = assay type: cell-based
Protocol: as §1, §2, §3, §4

P. aeruginosa = assay type: cell-based
Protocol: as §1, §2, §3, §4

A. baumannii = assay type: cell-based
Protocol: as §1, §2, §3, §4

M. abscessus = assay type: cell-based, Mycobacterium abscessus; conditions: M. abscessus strain 690, isolation year 2012
Protocol: as §1, §2, §3, §4

M. fortuitum = assay type: cell-based; conditions: M. fortuitum strain 1080, isolation year 2011
Protocol: as §1, §2, §3, §4

M. chelonae = assay type: cell-based; conditions: M. chelonae strain 870, isolation year 2011
Protocol: as §1, §2, §3, §4

[1] = B. cereus strain 25, isolation year 2014
[2] = B. cereus strain 182, isolation year 2013
[3] = S. epidermidis strain 188, isolation year 2009
[4] = S. epidermidis strain 982, isolation year 2006
[5] = S. aureus strain 282, isolation year 2005
[6] = S. aureus strain 890, isolation year 2010
[7] = E. faecalis strain 52, isolation year 2006
[8] = E. faecalis strain 1052, isolation year 2008
[9] = E. faecium strain 26, isolation year 2012
[10] = E. faecium strain 209, isolation year 2015
[11] = N. carnea strain 40, isolation year 2011
[12] = N. carnea strain 769, isolation year 2009
[13] = T. pulmonis strain 40, isolation year 2015
[14] = T. pulmonis strain 1991, isolation year 2009
[15] = E. coli strain 29, isolation year 2012
[16] = E. coli strain 305, isolation year 2008
[17] = N cyriacigeorgica strain 199, isolation year 2005
[18] = N. cyriacigeorgica strain 30, isolation year 2005
[19] = P. aeruginosa strain 96, isolation year 2014
[20] = P. aeruginosa strain 115, isolation year 2013
[21] = A. baumannii strain 300, isolation year 2001
[22] = A. baumannii strain 1301, isolation year 2009
Note: key: I = intermediate activity; S = susceptibility; R = Resistance.

CN(C)[C@@H]1C(O)=C(C(N)=O)C(=O)[C@@]2(O)C(O)=C3C(=O)c4c(O)cccc4[C@@](C)(O)[C@H]3C[C@@H]12 [TET, Tetracycline]
Sensitivity or resistance of the strain to the antibiotic (B. cereus; [1]): R | Sensitivity or resistance of the strain to the antibiotic (B. cereus; [2]): S | Sensitivity or resistance of the strain to the antibiotic (S. epidermidis; [3]): S | Sensitivity or resistance of the strain to the antibiotic (S. epidermidis; [4]): S | Sensitivity or resistance of the strain to the antibiotic (S. aureus; [5]): S | Sensitivity or resistance of the strain to the antibiotic (S. aureus; [6]): R

CCC[C@@H]1C[C@@H](C(=O)N[C@@H]([C@H]2O[C@H](SC)[C@H](O)[C@@H](O)[C@H]2O)[C@H](C)Cl)N(C)C1 [CLI, Clindamycin]
Sensitivity or resistance of the strain to the antibiotic (B. cereus; [1]): R | Sensitivity or resistance of the strain to the antibiotic (B. cereus; [2]): R | Sensitivity or resistance of the strain to the antibiotic (S. epidermidis; [3]): S | Sensitivity or resistance of the strain to the antibiotic (S. epidermidis; [4]): R | Sensitivity or resistance of the strain to the antibiotic (S. aureus; [5]): R | Sensitivity or resistance of the strain to the antibiotic (S. aureus; [6]): R

CN[C@H](CC(C)C)C(=O)N[C@H]1C(=O)N[C@@H](CC(N)=O)C(=O)N[C@H]2C(=O)N[C@H]3C(=O)N[C@H](C(=O)N[C@H](C(=O)O)c4cc(O)cc(O)c4-c4cc3ccc4O)[C@H](O)c3ccc(c(Cl)c3)Oc3cc2cc(c3O[C@@H]2O[C@H](CO)[C@@H](O)[C@H](O)[C@H]2O[C@H]2C[C@](C)(N)[C@H](O)[C@H](C)O2)Oc2ccc(cc2Cl)[C@H]1O [VAN, Vancomycin]
Sensitivity or resistance of the strain to the antibiotic (B. cereus; [1]): S | Sensitivity or resistance of the strain to the antibiotic (B. cereus; [2]): S | Sensitivity or resistance of the strain to the antibiotic (S. epidermidis; [3]): S | Sensitivity or resistance of the strain to the antibiotic (S. epidermidis; [4]): S | Sensitivity or resistance of the strain to the antibiotic (E. faecalis; [7]): S | Sensitivity or resistance of the strain to the antibiotic (E. faecalis; [8]): S | Sensitivity or resistance of the strain to the antibiotic (E. faecium; [9]): I | Sensitivity or resistance of the strain to the antibiotic (E. faecium; [10]): S | Sensitivity or resistance of the strain to the antibiotic (S. aureus; [5]): S | Sensitivity or resistance of the strain to the antibiotic (S. aureus; [6]): S

CO/N=C(\C(=O)N[C@@H]1C(=O)N2C(C(=O)O)=C(COC(C)=O)CS[C@H]12)c1csc(N)n1 [CTX, Cefotaxime]
Sensitivity or resistance of the strain to the antibiotic (N. carnea; [11]): S | Sensitivity or resistance of the strain to the antibiotic (N. carnea; [12]): S | Sensitivity or resistance of the strain to the antibiotic (T. pulmonis; [13]): R | Sensitivity or resistance of the strain to the antibiotic (T. pulmonis; [14]): S | Sensitivity or resistance of the strain to the antibiotic (E. faecalis; [7]): R | Sensitivity or resistance of the strain to the antibiotic (E. faecalis; [8]): R | Sensitivity or resistance of the strain to the antibiotic (E. faecium; [9]): R | Sensitivity or resistance of the strain to the antibiotic (E. faecium; [10]): R | Sensitivity or resistance of the strain to the antibiotic (E. coli; [15]): S | Sensitivity or resistance of the strain to the antibiotic (E. coli; [16]): R | Sensitivity or resistance of the strain to the antibiotic (N. cyriacigeorgica; [17]): R | Sensitivity or resistance of the strain to the antibiotic (N. cyriacigeorgica; [18]): S | Sensitivity or resistance of the strain to the antibiotic (P. aeruginosa; [19]): S | Sensitivity or resistance of the strain to the antibiotic (P. aeruginosa; [20]): S

Gentamicin
Sensitivity or resistance of the strain to the antibiotic (S. epidermidis; [3]): S | Sensitivity or resistance of the strain to the antibiotic (S. epidermidis; [4]): R | Sensitivity or resistance of the strain to the antibiotic (E. faecalis; [7]): S | Sensitivity or resistance of the strain to the antibiotic (E. faecalis; [8]): S | Sensitivity or resistance of the strain to the antibiotic (E. faecium; [9]): S | Sensitivity or resistance of the strain to the antibiotic (E. faecium; [10]): S | Sensitivity or resistance of the strain to the antibiotic (E. coli; [15]): S | Sensitivity or resistance of the strain to the antibiotic (E. coli; [16]): S | Sensitivity or resistance of the strain to the antibiotic (S. aureus; [5]): R | Sensitivity or resistance of the strain to the antibiotic (S. aureus; [6]): R

Amoxicillin/Clavulanate [A/C]
Sensitivity or resistance of the strain to the antibiotic (N. carnea; [11]): S | Sensitivity or resistance of the strain to the antibiotic (N. carnea; [12]): S | Sensitivity or resistance of the strain to the antibiotic (T. pulmonis; [13]): R | Sensitivity or resistance of the strain to the antibiotic (T. pulmonis; [14]): S | Sensitivity or resistance of the strain to the antibiotic (E. coli; [15]): S | Sensitivity or resistance of the strain to the antibiotic (E. coli; [16]): R | Sensitivity or resistance of the strain to the antibiotic (N. cyriacigeorgica; [17]): R | Sensitivity or resistance of the strain to the antibiotic (N. cyriacigeorgica; [18]): R

NC[C@H]1O[C@H](O[C@H]2[C@H](O)[C@@H](O[C@H]3O[C@H](CO)[C@@H](O)[C@H](N)[C@H]3O)[C@H](N)C[C@@H]2N)[C@H](N)C[C@@H]1O [TOB, Tobramycin]
Sensitivity or resistance of the strain to the antibiotic (A. baumannii; [21]): S | Sensitivity or resistance of the strain to the antibiotic (A. baumannii; [22]): S | Sensitivity or resistance of the strain to the antibiotic (P. aeruginosa; [19]): S

CO[C@H]1/C=C/O[C@@]2(C)Oc3c(C)c(O)c4c(O)c(c(/C=N/N5CCN(C)CC5)c(O)c4c3C2=O)NC(=O)/C(C)=C\C=C\[C@H](C)[C@H](O)[C@@H](C)[C@@H](O)[C@@H](C)[C@H](OC(C)=O)[C@@H]1C [RIF, Rifampicin]
Sensitivity or resistance of the strain to the antibiotic (B. cereus; [1]): S | Sensitivity or resistance of the strain to the antibiotic (B. cereus; [2]): S

CO/N=C(\C(=O)N[C@@H]1C(=O)N2C(C(=O)O)=C(CSc3nc(=O)c(O)nn3C)CS[C@H]12)c1csc(N)n1 [CEF, Ceftriazone]
Sensitivity or resistance of the strain to the antibiotic (A. baumannii; [21]): R | Sensitivity or resistance of the strain to the antibiotic (A. baumannii; [22]): R | Sensitivity or resistance of the strain to the antibiotic (P. aeruginosa; [19]): R

C[C@@H](O)[C@H]1C(=O)N2C(C(=O)O)=C(S[C@@H]3CN[C@H](C(=O)N(C)C)C3)[C@H](C)[C@H]12 [MER, Meropenem]
Sensitivity or resistance of the strain to the antibiotic (A. baumannii; [21]): R | Sensitivity or resistance of the strain to the antibiotic (A. baumannii; [22]): S | Sensitivity or resistance of the strain to the antibiotic (P. aeruginosa; [19]): R

Cotrimoxazole [SxT]
Sensitivity or resistance of the strain to the antibiotic (N. carnea; [11]): R | Sensitivity or resistance of the strain to the antibiotic (N. carnea; [12]): R | Sensitivity or resistance of the strain to the antibiotic (M. abscessus): S | Sensitivity or resistance of the strain to the antibiotic (T. pulmonis; [13]): R | Sensitivity or resistance of the strain to the antibiotic (T. pulmonis; [14]): S | Sensitivity or resistance of the strain to the antibiotic (M. fortuitum): S | Sensitivity or resistance of the strain to the antibiotic (M. chelonae): R | Sensitivity or resistance of the strain to the antibiotic (N. cyriacigeorgica; [17]): S | Sensitivity or resistance of the strain to the antibiotic (N. cyriacigeorgica; [18]): S

NCC[C@H](O)C(=O)N[C@@H]1C[C@H](N)[C@@H](O[C@H]2O[C@H](CN)[C@@H](O)[C@H](O)[C@H]2O)[C@H](O)[C@H]1O[C@H]1O[C@H](CO)[C@@H](O)[C@H](N)[C@H]1O [AMK, Amikacin]
Sensitivity or resistance of the strain to the antibiotic (N. carnea; [11]): R | Sensitivity or resistance of the strain to the antibiotic (N. carnea; [12]): S | Sensitivity or resistance of the strain to the antibiotic (T. pulmonis; [13]): R | Sensitivity or resistance of the strain to the antibiotic (T. pulmonis; [14]): S | Sensitivity or resistance of the strain to the antibiotic (S. epidermidis; [3]): S | Sensitivity or resistance of the strain to the antibiotic (S. epidermidis; [4]): S | Sensitivity or resistance of the strain to the antibiotic (E. faecalis; [7]): S | Sensitivity or resistance of the strain to the antibiotic (E. faecalis; [8]): S | Sensitivity or resistance of the strain to the antibiotic (A. baumannii; [21]): R | Sensitivity or resistance of the strain to the antibiotic (A. baumannii; [22]): S | Sensitivity or resistance of the strain to the antibiotic (E. faecium; [9]): S | Sensitivity or resistance of the strain to the antibiotic (E. faecium; [10]): R | Sensitivity or resistance of the strain to the antibiotic (E. coli; [15]): S | Sensitivity or resistance of the strain to the antibiotic (E. coli; [16]): S | Sensitivity or resistance of the strain to the antibiotic (S. aureus; [5]): S | Sensitivity or resistance of the strain to the antibiotic (S. aureus; [6]): S | Sensitivity or resistance of the strain to the antibiotic (N. cyriacigeorgica; [17]): R | Sensitivity or resistance of the strain to the antibiotic (N. cyriacigeorgica; [18]): S | Sensitivity or resistance of the strain to the antibiotic (P. aeruginosa; [19]): S | Sensitivity or resistance of the strain to the antibiotic (P. aeruginosa; [20]): S
